Measured values as given in publication PMC10687288, “Chalcones: The flavonoid derivatives synthesis, characterization, their antioxidant and in vitro/in vivo antidiabetic potentials” (Heliyon, 2023).

Each compound was assayed against α-glucosidase (assay: p-nitrophenyl-α-D-glucopyranoside hydrolysis assay, absorbance […] nm).
Assay type: biochemical

Glucosidase IC50 [µg/mL]	SMILES
97.24 ± 1.48	O=C(/C=C/c1cccc(Cl)c1)c1ccc(Br)cc1 [JA2, (E)-1-(4-bromophenyl)-3-(3-chlorophenyl) prop-2-ene-1one]
63.04 ± 1.17	O=C(/C=C/c1ccc(Cl)cc1)c1ccc(Br)cc1 [JA3, (E)-1-(4-bromophenyl)-3-(4-chlorophenyl) prop-2-ene-1one]
85.11 ± 1.29	O=C(/C=C/c1ccccc1Cl)c1ccc(Br)cc1 [JA1, (E)-1-(4-bromophenyl)-3-(2-chlorophenyl) prop-2-ene-1one]
